Results as given in ChEMBL document CHEMBL4842368, “Berotralstat (BCX7353): Structure-Guided Design of a Potent, Selective, and Oral Plasma Kallikrein Inhibitor to Prevent Attacks of Hereditary Angioedema (HAE)” (J Med Chem, 2021).
Converted amounts (≈) assume the structure as drawn. Blank lines part the entries; values can stand above or below the compound they belong to.

Assays:
[1] = target: T1, Plasma kallikrein (Homo sapiens, UniProt P03952); test: Inhibition of purified human plasma kallikrein using H-D-Pro-Phe-Arg-pNA.2HCl as substrate measured after 3 mins by microplate reader analysis
T1 sequence (P03952 20-390 limits assumed): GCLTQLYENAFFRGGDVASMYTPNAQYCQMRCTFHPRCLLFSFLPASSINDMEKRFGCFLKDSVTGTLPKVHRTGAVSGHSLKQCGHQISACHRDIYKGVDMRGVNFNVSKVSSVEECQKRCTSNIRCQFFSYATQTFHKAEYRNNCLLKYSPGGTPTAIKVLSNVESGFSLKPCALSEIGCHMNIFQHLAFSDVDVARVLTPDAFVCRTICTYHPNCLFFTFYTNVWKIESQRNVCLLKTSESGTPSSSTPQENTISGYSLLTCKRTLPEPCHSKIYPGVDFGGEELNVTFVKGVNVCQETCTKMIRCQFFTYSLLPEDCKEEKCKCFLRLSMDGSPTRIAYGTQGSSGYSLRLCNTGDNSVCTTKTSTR
T1 sequence (P03952 391-638 limits assumed): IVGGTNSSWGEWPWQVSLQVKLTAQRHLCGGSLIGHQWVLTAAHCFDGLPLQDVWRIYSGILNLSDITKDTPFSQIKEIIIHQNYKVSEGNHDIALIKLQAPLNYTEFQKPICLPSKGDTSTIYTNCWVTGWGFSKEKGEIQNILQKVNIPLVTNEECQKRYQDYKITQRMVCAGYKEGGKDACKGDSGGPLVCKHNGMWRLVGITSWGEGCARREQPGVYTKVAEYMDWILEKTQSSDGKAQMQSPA

[2] = target: T1, Plasma kallikrein; test: Inhibition of endogenous human plasma kallikrein using Z-Phe-Arg-AMC.HCl as substrate measured after 5 mins by microplate reader analysis
[3] = target: T1, Plasma kallikrein; test: Inhibition of purified human plasma kallikrein assessed as inhibition constant using H-D-Pro-Phe-Arg-pNA.2HCl as substrate measured after 3 mins by microplate reader analysis
[4] = Solubility of compound at pH 4; type: physicochemical; settings: buffer
[5] = Solubility of compound at pH 7; type: physicochemical; settings: buffer
[6] = organism: Homo sapiens; test: Selectivity index, ratio of IC50 for human trypsin to IC50 for human plasma kallikrein
[7] = organism: Homo sapiens; test: Selectivity index, ratio of IC50 for human thrombin to IC50 for human plasma kallikrein
[8] = organism: Homo sapiens; test: Selectivity index, ratio of IC50 for human tissue kallikrein to IC50 for human plasma kallikrein
[9] = organism: Homo sapiens; test: Selectivity index, ratio of IC50 for human plasmin to IC50 for human plasma kallikrein
[10] = organism: Homo sapiens; test: Selectivity index, ratio of IC50 for human FX2a to IC50 for human plasma kallikrein
[11] = organism: Homo sapiens; test: Selectivity index, ratio of IC50 for human tPA to IC50 for human plasma kallikrein
[12] = organism: Homo sapiens; test: Selectivity index, ratio of IC50 for human Cls to IC50 for human plasma kallikrein
[13] = organism: Homo sapiens; test: Selectivity index, ratio of IC50 for human APC to IC50 for human plasma kallikrein
[14] = organism: Homo sapiens; test: Selectivity index, ratio of IC50 for human FXa to IC50 for human plasma kallikrein
[15] = AUC in rat at 5 mg/kg, po after 12 hrs; type: ADME, organism-based; set-up: route oral, time 12 hrs, dose 5 mg/kg; settings: in vivo
[16] = Cmax in rat at 5 mg/kg, po; type: ADME, organism-based; set-up: route oral, dose 5 mg/kg; settings: in vivo
[17] = AUC in rat at 5 mg/kg, po after 24 hrs; type: ADME, organism-based; set-up: route oral, dose 5 mg/kg, time 24 hrs; settings: in vivo
[18] = Plasma concentration in rat at 5 mg/kg, po after 12 hrs; type: ADME, organism-based
[19] = Plasma concentration in rat at 5 mg/kg, po after 24 hrs; type: ADME, organism-based

Structure (SMILES): CS(=O)(=O)c1cccc(-c2ccc(NC(=O)c3cc(C(F)(F)F)nn3-c3cccc(CN)c3)c(F)c2)c1
IC50 [1]: 1.23 µM

IC50 [1]: 0.037 µM
IC50 [2]: > 1 µM
Structure (SMILES): NCc1cccc(-n2nc(C(F)(F)F)cc2C(=O)Nc2cccc(C(OCC3CC3)c3ccccc3)c2F)c1 (configuration not stated)

IC50 [1]: 1 µM
Structure (SMILES): NCc1cccc(-n2nc(C(F)(F)F)cc2C(=O)Nc2ccc(C(O)c3ccccc3)cc2F)c1 (configuration not stated)

Structure (SMILES): C=Cc1cc(C(=O)Nc2ccc(C(=N)N)cc2)c(-c2ccc(C(=O)NCC3CC3)nc2C(=O)O)cc1OC [AVORALSTAT]
Ki [3]: 0.00026 µM
solubility [4]: 47 mg/mL (≈ 91.5 mM)
solubility [5]: 1.09 mg/mL (≈ 2.12 mM)
Ratio IC50 [6]: 8192

Ratio IC50 [7]: > 56800
Ratio IC50 [8]: > 34100
Ratio IC50 [9]: 4510
Ratio IC50 [10]: > 56800
Ratio IC50 [11]: > 56800
Ratio IC50 [12]: > 56800
Ratio IC50 [13]: > 34100
Ratio IC50 [14]: > 56800
Ratio IC50 [6]: 12500
Structure (SMILES): N#Cc1cccc([C@@H](NCC2CC2)c2ccc(F)c(NC(=O)c3cc(C(F)(F)F)nn3-c3cccc(CN)c3)c2)c1 (stereo in doubt)

IC50 [1]: 0.0052 µM
AUC at 12 h [15]: 0.073 µg·h/mL
Cmax [16]: 0.022 µg/mL
IC50 [2]: 0.0167 µM
Structure (SMILES): NCc1cccc(-n2nc(C(F)(F)F)cc2C(=O)Nc2cc(C(NCC3CC3)c3ccncc3)ccc2F)c1 (configuration not stated)

IC50 [1]: 0.0104 µM
AUC at 12 h [15]: 0.131 µg·h/mL
Cmax [16]: 0.045 µg/mL
IC50 [2]: 0.0267 µM
Structure (SMILES): NCc1cccc(-n2nc(C(F)(F)F)cc2C(=O)Nc2cc(C(NCC3CC3)c3ccccn3)ccc2F)c1 (configuration not stated)

Structure (SMILES): NCc1cccc(-n2nc(C(F)(F)F)cc2C(=O)Nc2ccccc2)c1
IC50 [1]: 22.6 µM

IC50 [1]: 0.01 µM
AUC at 12 h [15]: 0.128 µg·h/mL
Cmax [16]: 0.058 µg/mL
IC50 [2]: 0.01 µM
Structure (SMILES): NCc1cccc(-n2nc(C(F)(F)F)cc2C(=O)Nc2cc(C(NCC3CC3)c3cccnc3)ccc2F)c1 (configuration not stated)

IC50 [1]: 0.231 µM
Structure (SMILES): COC(c1ccccc1)c1ccc(F)c(NC(=O)c2cc(C(F)(F)F)nn2-c2cccc(CN)c2)c1 (configuration not stated)

Structure (SMILES): NCc1cccc(-n2nc(C(F)(F)F)cc2C(=O)Nc2ccc(-c3ccc(S(N)(=O)=O)cc3)cc2F)c1
IC50 [1]: 0.395 µM

Structure (SMILES): NCc1cccc(-n2nc(C(F)(F)F)cc2C(=O)Nc2ccc(C3CC3)cc2F)c1
IC50 [1]: 0.577 µM

AUC at 12 h [15]: 0.493 µg·h/mL
AUC at 24 h [17]: 0.852 µg·h/mL
concentration at 12 h [18]: 0.031 µg/mL
Cmax [16]: 0.051 µg/mL
concentration at 24 h [19]: 0.029 µg/mL
Structure (SMILES): NCc1cccc(-n2nc(C(F)(F)F)cc2C(=O)Nc2cc(C(NCC3CC3)c3ccccc3)ccc2F)c1 (stereo in doubt; 25)

Structure (SMILES): NCc1cccc(-n2ccc(C(F)(F)F)n2)c1
IC50 [1]: 1000 µM

Structure (SMILES): NCc1cccc(-n2nc(C(F)(F)F)cc2C(=O)Nc2ccc(-c3ccccc3)cc2F)c1
IC50 [1]: 1.02 µM

IC50 [1]: 0.0376 µM
IC50 [2]: 0.3 µM
Structure (SMILES): NCc1cccc(-n2nc(C(F)(F)F)cc2C(=O)Nc2cccc(C(OCC3CC3)c3ccccc3)c2)c1 (configuration not stated)
